Data: patent publication US8436016B2, “Fused heterocyclic M1 receptor positive allosteric modulators” (priority 2008, dated 2013)
pEC50: −log10 of the molar value. Where two headings read alike, the source gives them in different places.

Biological target: T1, acetylcholine muscarinic M1 receptor (Homo sapiens, UniProt P11229)
T1 construct: expressed in transfected cells; host or cells: CHOnfat (CHO cells with an NFAT reporter background) expressing hM1, kept under Geneticin selection
T1 sequence (P11229 1-460): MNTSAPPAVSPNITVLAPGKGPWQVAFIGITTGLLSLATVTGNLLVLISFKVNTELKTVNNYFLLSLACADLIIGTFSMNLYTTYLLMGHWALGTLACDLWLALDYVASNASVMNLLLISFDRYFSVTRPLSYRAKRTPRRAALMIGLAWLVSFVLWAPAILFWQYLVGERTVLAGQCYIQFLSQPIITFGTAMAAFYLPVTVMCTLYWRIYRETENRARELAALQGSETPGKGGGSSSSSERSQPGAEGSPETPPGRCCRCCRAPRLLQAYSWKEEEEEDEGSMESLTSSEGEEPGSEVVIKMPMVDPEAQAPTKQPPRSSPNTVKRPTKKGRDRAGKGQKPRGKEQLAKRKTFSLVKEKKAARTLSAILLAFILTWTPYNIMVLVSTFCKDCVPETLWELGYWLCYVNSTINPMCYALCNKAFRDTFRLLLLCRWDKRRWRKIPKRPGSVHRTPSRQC
Experiment: muscarinic FLIPR assay: potentiation of acetylcholine (EC20)-stimulated intracellular Ca2+ in CHOnfat/hM1 cells
Type: cell-based
Protocol: The assay studies the effect of one or several concentrations of test compounds on basal or acetylcholine-stimulated Ca^2+ levels using FLIPR.
Compounds are prepared and subjected to a preincubation period of 4 min. Thereafter, a single EC20 concentration of acetylcholine is added to each well (3 nM final). The intracellular Ca^2+ level of each sample is measured and compared to an acetylcholine control to determine any modulatory activity.
Cells: CHOnfat/hM1, hM2, hM3 or hM4 cells are plated 24 hr before the assay at a density of 18,000 cells/well (100 μL) in a 384 well plate. CHOnfat/hM1 and CHOnfat/hM3 Growth Medium: 90% DMEM (Hi Glucose); 10% HI FBS; 2 mM L-glutamine; 0.1 mM NEAA; Pen-Strep; and 1 mg/ml Geneticin, are added. For M2Gqi5CHOnfat and M4Gqi5CHOnfat cells, an additional 600 μg/ml hygromycin is added.
Buffers. […] Dye Loading Buffer: Assay Buffer plus 1% Fetal Bovine Serum and Fluo-4AM/Pluronic Acid Mixture. […] 20% Pluronic Acid Solution stock, with a concentration of 0.04% in Buffer, 0.02% in Assay.
65 μL of 2 mM Fluo-4AM are mixed with 130 μL of 20% Pluronic Acid. The resulting solution and 650 μL FBS is added to the assay buffer for a total volume of 65 mL. Positive Controls: 4-Br-A23187: 10 mM in DMSO; final concentration 10 μM. Acetylcholine: 10 mM in water, working stock at both 20 μM and 30 μM in assay buffer, final concentration of 10 μM. This is used to check the maximum stimulation of the CHOK1/hM1 cells. 20 μM (2×) acetylcholine is added in the preincubation part of the assay, and the 30 μM (3×) stock is added in the second part. (EC20)Acetylcholine: 10 mM in water, working stock of 9 nM (3×), and final concentration in assay is 3 nM. This is used after the preincubation with test compounds. Addition of the EC20 Acetylcholine to each well with a test compound will ascertain any modulator activity. 24 wells contain 3 nM Acetylcholine alone as a control.
Determining Activity of Putative Compounds:
Four 96-well plates are combined into a 384-well plate using Mosquito Nanolitre Pipetting System by transferring 1 μl of serial diluted compounds to each well, and 1 mM acetylcholine (100× stock concentration) were added as a control. Using Term, 49 μl assay buffer is added to each well of the 384-well plate right before assay.
In a 96-well Whatman 2 ml Uniplate, 9 nM Acetylcholine (3×) is pipetted into wells corresponding to the screening compounds and into control wells. The 30 μM acetylcholine control (3×) is added into control wells and the 3× agonist plate is transferred into a 384-well plate.
Cells are washed three times with 100 μL of buffer, leaving 30 μL of buffer in each well. Using Multimek, 30 μL of Dye Loading Buffer is added into each well and incubated at 37° C., 5% CO2 for up to one hr.
After 60 min, the cells are washed three times with 100 μL of buffer, leaving 30 μL of buffer in each well. The cell plate, screening plate, and agonist addition plates are placed on the platform in the FLIPR and the door is closed. A signal test to check background fluorescence and basal fluorescence signal is performed. Laser intensity is adjusted if necessary.
4 min of preincubation with the test compounds is provided to determine any agonist activity on the M1 receptor by comparison to the 1 mM acetylcholine control. After preincubation, the EC20 value of acetylcholine (3 nM final) is added to determine any modulator activity.
The inflection point is calculated from the FLIPR values, and is a measure of activity.

[1] = CHOnfat/hM1 cells, FLIPR, 4 min preincubation, then EC20 acetylcholine (3 nM final), read-out: IP Value (inflection point)

pEC50 | pEC50 [1] | SMILES
7.14 | – | Cn1ncc2cc(Cn3cc(C(=O)O)c(=O)c4c(F)cccc43)ccc21 [Example 1, 5-Fluoro-1-[(1-methyl-1H-indazol-5-yl)methyl]-4-oxo-1,4-dihydroquinoline-3-carboxylic acid]
– | 6.58 | O=C(O)c1cn(Cc2ccc3cc(F)ccc3c2)c2cccc(F)c2c1=O [Example 3, 5-Fluoro-1-[(6-fluoro-2-naphthyl)methyl]-4-oxo-1,4-dihydroquinoline-3-carboxylic acid]
7.10 | – | O=C(O)c1cn(Cc2ccc3ccccc3c2)c2c(F)cccc2c1=O [Example 4]
– | 6.30 | O=C(O)c1cn(Cc2ccc3nccnc3c2)c2cccc(F)c2c1=O [Example 15]
7.54 | – | O=C(O)c1cn(Cc2ccc3c(c2)OCCO3)c2cccc(F)c2c1=O [Example 27]
– | 6.64 | O=C(O)c1cn(Cc2ccc3[nH]cnc3c2)c2cccc(F)c2c1=O [Example 42]
7.42 | – | O=C1Cc2cc(Cn3cc(C(=O)O)c(=O)c4c(F)cccc43)ccc2N1 [Example 53]
– | 6.83 | O=C(O)c1cn(Cc2cc3ccccc3s2)c2cccc(F)c2c1=O [Example 56]
– | 5.89 | O=C(O)c1cn(Cc2cccc3ccncc23)c2cccc(F)c2c1=O [Example 73]

SMILES | pEC50 | pEC50 [1]
O=C(O)c1cn(Cc2ccc3[nH]ccc3c2)c2cccc(F)c2c1=O [Example 33] | 7.03 | –
O=C(O)c1cn(Cc2cc3ccccc3[nH]2)c2cccc(F)c2c1=O [Example 58] | 6.18 | –
